Measurements: US8580794B2 (AbbVie Inc., priority 2009, dated 2013)
Like-named read-outs stand apart in the source and are kept apart here.

Biological target: GST-Bc1-2 (Homo sapiens, UniProt P10415)
Assay: Time Resolved-Fluorescence Resonance Energy Transfer (TR-FRET) Bcl-2 binding assay with F-Bak peptide probe
[1] = GST-Bcl-2 1 nM, F-Bak probe 100 nM, Tb-anti-GST 1 nM, '<' = below limit of detection, read-out: TR-FRET Bcl-2 Binding Ki
[2] = Table 5, direct comparison Z=N vs Z=C analogs, read-out: Bcl-2 FRET ki

Chain of GST-Bc1-2 (P10415 whole entry): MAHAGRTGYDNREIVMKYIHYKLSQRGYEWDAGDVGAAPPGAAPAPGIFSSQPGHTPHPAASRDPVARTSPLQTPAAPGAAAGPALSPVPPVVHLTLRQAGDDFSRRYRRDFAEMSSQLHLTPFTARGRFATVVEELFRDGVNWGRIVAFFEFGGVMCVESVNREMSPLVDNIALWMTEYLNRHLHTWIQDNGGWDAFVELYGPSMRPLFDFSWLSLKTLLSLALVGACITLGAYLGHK

| Structure (SMILES) | Ki [1] [nM] | Ki [2] [nM] |
| --- | --- | --- |
| CC1(C)CCC(CN2CCN(c3ccc(C(=O)NS(=O)(=O)c4ccc(NC5CCN([C@H]6CCOC[C@H]6F)CC5)c([N+](=O)[O-])c4)c(Oc4cnc5[nH]ccc5c4)c3)CC2)=C(c2ccc(Cl)cc2)C1 (relative stereo) [Example 115, 4-(4-{[2-(4-chlorophenyl)-4,4-dimethylcyclohex-1-en-1-yl]methyl}piperazin-1-yl)-N-{[4-({1-[cis-3-fluorotetrahydro-2H-pyran-4-yl]piperidin-4-yl}amino)-3-nitrophenyl]sulfonyl}-2-(1H-pyrrolo[2,3-b]pyridin-5-yloxy)benzamide] | < 0.01 | – |
| CC1(C)CCC(CN2CCN(c3ccc(C(=O)NS(=O)(=O)c4ccc(OC[C@@H]5CN(C6COC6)C[C@H]5CF)c([N+](=O)[O-])c4)c(Oc4cnc5[nH]ccc5c4)c3)CC2)=C(c2ccc(Cl)cc2)C1 (relative stereo) [Example 137, 4-(4-{[2-(4-chlorophenyl)-4,4-dimethylcyclohex-1-en-1-yl]methyl}piperazin-1-yl)-N-[(4-{[trans-4-(fluoromethyl)-1-oxetan-3-ylpyrrolidin-3-yl]methoxy}-3-nitrophenyl)sulfonyl]-2-(1H-pyrrolo[2,3-b]pyridin-5-yloxy)benzamide] | < 0.01 | – |
| O=C(NS(=O)(=O)c1ccc(NCC2CCOCC2)c([N+](=O)[O-])c1)c1ccc(N2CCN(Cc3ccccc3-c3ccc(Cl)cc3)CC2)cc1Oc1cnc2[nH]ccc2c1 [Example 1, 4-{4-[(4′-chloro-1,1′-biphenyl-2-yl)methyl]piperazin-1-yl}-N-({3-nitro-4-[(tetrahydro-2H-pyran-4-ylmethyl)amino]phenyl}sulfonyl)-2-(1H-pyrrolo[2,3-b]pyridin-5-yloxy)benzamide] | 0.225 | 0.225 |
| O=C(NS(=O)(=O)c1ccc(NCCCN2CCOCC2)c([N+](=O)[O-])c1)c1ccc(N2CCN(Cc3ccccc3-c3ccc(Cl)cc3)CC2)cc1Oc1cnc2[nH]ccc2c1 [Example 2, 4-{4-[(4′-chloro-1,1′-biphenyl-2-yl)methyl]piperazin-1-yl}-N-({4-[(3-morpholin-4-ylpropyl)amino]-3-nitrophenyl}sulfonyl)-2-(1H-pyrrolo[2,3-b]pyridin-5-yloxy)benzamide] | < 0.01 | < 0.01 |
| CC1(C)CCC(CN2CCN(c3ccc(C(=O)NS(=O)(=O)c4ccc(NC5CCN(C6CCOCC6)CC5)c([N+](=O)[O-])c4)c(Oc4cnc5[nH]ccc5c4)c3)CC2)=C(c2ccc(Cl)cc2)C1 [Example 3, 4-(4-{[2-(4-chlorophenyl)-4,4-dimethylcyclohex-1-en-1-yl]methyl}piperazin-1-yl)-N-({3-nitro-4-[(1-tetrahydro-2H-pyran-4-ylpiperidin-4-yl)amino]phenyl}sulfonyl)-2-(1H-pyrrolo[2,3-b]pyridin-5-yloxy)benzamide] | 0.013 | 0.013 |
| CN1CCC(Nc2ccc(S(=O)(=O)NC(=O)c3ccc(N4CCN(CC5=C(c6ccc(Cl)cc6)CC(C)(C)CC5)CC4)cc3Oc3cccc4[nH]c5ccccc5c34)cc2[N+](=O)[O-])CC1 [Example 7, 2-(9H-carbazol-4-yloxy)-4-(4-{[2-(4-chlorophenyl)-4,4-dimethylcyclohex-1-en-1-yl]methyl}piperazin-1-yl)-N-({4-[(1-methylpiperidin-4-yl)amino]-3-nitrophenyl}sulfonyl)benzamide] | 4.92 | – |
| CC1(C)CCC(CN2CCN(c3ccc(C(=O)NS(=O)(=O)c4ccc(NCCCN5CCCC5)c([N+](=O)[O-])c4)c(Oc4cccc5[nH]c6ccccc6c45)c3)CC2)=C(c2ccc(Cl)cc2)C1 [Example 8, 2-(9H-carbazol-4-yloxy)-4-(4-{[2-(4-chlorophenyl)-4,4-dimethylcyclohex-1-en-1-yl]methyl}piperazin-1-yl)-N-({3-nitro-4-[(3-pyrrolidin-1-ylpropyl)amino]phenyl}sulfonyl)benzamide] | 0.153 | – |
